Structures can show the parent of a compound that is named as a salt.

One experiment has as its target T1, FAAH (Rattus norvegicus, UniProt P97612).
T1 construct: Frozen brains (without cerebellum) from Wistar rats were used; from tissue; host or cells: Wistar rat brain (without cerebellum), washed membrane pellets
T1 sequence (P97612 1-579): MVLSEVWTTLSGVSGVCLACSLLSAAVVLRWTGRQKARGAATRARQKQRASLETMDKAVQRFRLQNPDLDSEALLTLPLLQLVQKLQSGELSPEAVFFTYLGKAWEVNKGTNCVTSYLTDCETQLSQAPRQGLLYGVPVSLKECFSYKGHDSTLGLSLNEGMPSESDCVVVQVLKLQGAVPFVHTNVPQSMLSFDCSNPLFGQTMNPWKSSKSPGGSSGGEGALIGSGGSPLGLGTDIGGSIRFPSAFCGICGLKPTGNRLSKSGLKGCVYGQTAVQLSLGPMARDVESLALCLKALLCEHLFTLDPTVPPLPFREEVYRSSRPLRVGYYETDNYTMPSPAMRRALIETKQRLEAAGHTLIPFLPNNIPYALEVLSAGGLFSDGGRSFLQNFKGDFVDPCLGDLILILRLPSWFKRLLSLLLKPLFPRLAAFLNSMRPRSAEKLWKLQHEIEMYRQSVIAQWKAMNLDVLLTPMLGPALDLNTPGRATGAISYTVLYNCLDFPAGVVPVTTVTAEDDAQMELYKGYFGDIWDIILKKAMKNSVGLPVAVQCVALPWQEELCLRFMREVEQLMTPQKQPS
Description: In vitro FAAH activity in rat brain membranes, 3H-AEA substrate, % of control. The class given is biochemical, Wistar rats. The settings on record: 100 nM test compound, low value = strong inhibitor. The method, boiled down: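 Wistar rat brain membranes (5 μg protein) preincubated 15 min at 37 °C with compound at 10 μM or 0.1 μM (0.1% DMSO), then 2 μM AEA including 3H-AEA with 0.1% BSA, Tris pH 7.6, 10 min. 3H-ethanolamine counted after charcoal stop; % of no-compound control after blank subtraction.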
Turning to `COc1cc(-c2cn(C(=O)N3COCC3(C)C)cn2)ccc1OCc1ccccc1` [Compound 225, (4-(4-(benzyloxy)-3-methoxyphenyl)-1H-imidazol-1-yl)(4,4-dimethyloxazolidin-3-yl)methanone], the “In Vitro FAAH activity, 100 nM” value is 79 % of control. Same read-out and setting: the same measure for `CN(Cc1ccccc1)C(=O)n1cnc(-c2cccs2)n1` [Compound 181, N-benzyl-N-methyl-3-(thiophen-2-yl)-1H-1,2,4-triazole-1-carboxamide]: 0.9 % of control; for `O=C(N[C@H]1CN2CCC1CC2)n1nnc2ccccc21` [Compound 142, (R)—N-(quinuclidin-3-yl)-1H-benzo[d][1,2,3]triazole-1-carboxamide hydrochloride]: 101.8 % of control; for `O=C(Nc1ccc(Oc2ccccc2)cc1)n1nnc2ccccc21` [Compound 56, N-(4-phenoxyphenyl)-1H-benzo[d][1,2,3]triazole-1-carboxamide]: 90.7 % of control. Still for that read-out and setting: the same measure for `CN(C(=O)n1cnc(-c2cccc3ccccc23)n1)c1ccccc1` [Compound 192, N-methyl-3-(naphthalen-1-yl)-N-phenyl-1H-1,2,4-triazole-1-carboxamide]: 64.6 % of control; for `O=C(N1CCN(C2CCCC2)CC1)n1nnc2ccccc21` [Compound 154, (1H-benzo[d][1,2,3]triazol-1-yl)(4-cyclopentylpiperazin-1-yl)methanone]: 0.2 % of control; for `O=C(N1CCCCCCC1)n1nnc2ccccc21` [Compound 171, azocan-1-yl(1H-benzo[d][1,2,3]triazol-1-yl)methanone]: 15.2 % of control. On the same count and under the same terms, the same measure for `CC(=O)N1CCN(C(=O)n2nnc3ccccc32)CC1` [Compound 178, 1-(4-(1H-benzo[d][1,2,3]triazole-1-carbonyl)piperazin-1-yl)ethanone]: 94.5 % of control. Take `CN(C(=O)n1cnc(-c2ccccc2F)c1)c1ccc(F)cc1` [Compound 45, 4-(2-fluorophenyl)-N-(4-fluorophenyl)-N-methyl-1H-imidazole-1-carboxamide]: the “In Vitro FAAH activity, 100 nM” value was 83 % of control. Consider `O=C(N1CCN(c2ccccc2)CC1)n1cnc(-c2ccccc2)c1` [Compound 101, (4-phenyl-1H-imidazol-1-yl)(4-phenylpiperazin-1-yl)methanone], for which the “In Vitro FAAH activity, 100 nM” value was 0.5 % of control.

For the compound `CN(Cc1cccc(Cl)c1)C(=O)n1nnc2ccccc21` [Compound 123, N-(3-chlorobenzyl)-N-methyl-1H-benzo[d][1,2,3]triazole-1-carboxamide], the “In Vitro FAAH activity, 100 nM” value is listed as 0 % of control. Take `O=C(N1CCN(c2ccc(O)cc2)CC1)n1nnc2ccccc21` [Compound 136, (1H-benzo[d][1,2,3]triazol-1-yl)(4-(4-hydroxyphenyl)piperazin-1-yl)methanone]: the “In Vitro FAAH activity, 100 nM” value is given as 0.2 % of control.

Consider `CN(C(=O)n1cnc(-c2cccc(-c3cccc(F)c3)c2)c1)C1CCCCC1` [Compound 246, N-cyclohexyl-4-(3′-fluorobiphenyl-3-yl)-N-methyl-1H-imidazole-1-carboxamide], for which the “In Vitro FAAH activity, 100 nM” value is on record as 2.9 % of control. Take `Cl.O=C(N1CCC(CCN2CCCC2)CC1)n1nnc2ccccc21` [Compound 105, (1H-benzo[d][1,2,3]triazol-1-yl)(4-(2-(pyrrolidin-1-yl)ethyl)piperidin-1-yl)methanone hydrochloride]: the “In Vitro FAAH activity, 100 nM” value was 64.7 % of control. Same read-out and setting: to `CN(C)C(=O)n1cnc(-c2ccc(Oc3ccc(C(N)=O)cc3)cc2)n1` [Compound 146, 3-(4-(4-carbamoylphenoxy)phenyl)-N,N-dimethyl-1H-1,2,4-triazole-1-carboxamide] belongs 77.1 % of control; to `COc1ccc(-c2ncn(C(=O)N3CCN(c4ccc(F)cc4)CC3)n2)cc1` [Compound 211, (4-(4-fluorophenyl)piperazin-1-yl)(3-(4-methoxyphenyl)-1H-1,2,4-triazol-1-yl)methanone], 1.9 % of control. The same measure, in the same setting: the same measure for `O=C(N1CCN(c2ccccc2)CC1)n1cnc(-c2ccccc2)n1` [Compound 111, (3-phenyl-1H-1,2,4-triazol-1-yl)(4-phenylpiperazin-1-yl)methanone]: 1.5 % of control. For the compound `CN(C(=O)n1cnc(-c2ccccc2)c1)C12CC3CC(CC(C3)C1)C2` [Compound 229], the “In Vitro FAAH activity, 100 nM” value is recorded as 99.2 % of control. Consider `COc1ccc2c(ccn2C(=O)N2CCOCC2)c1` [Compound 47, (5-methoxy-1H-indol-1-yl)(morpholino)methanone], for which the “In Vitro FAAH activity, 100 nM” value was 97.2 % of control. Still for that read-out and setting: to `O=C(N1CCSC1)n1cnc(-c2ccc(F)c(F)c2)c1` [Compound 215, (4-(3,4-difluorophenyl)-1H-imidazol-1-yl)(thiazolidin-3-yl)methanone] belongs 16.7 % of control; to `CN(C(=O)n1cnc(Cc2ccccc2)n1)c1ccccc1` [Compound 160, 3-benzyl-N-methyl-N-phenyl-1H-1,2,4-triazole-1-carboxamide], 18.8 % of control; to `CCN(CCOCc1ccccc1)C(=O)n1nnc2ccccc21` [Compound 202, N-(2-(benzyloxy)ethyl)-N-ethyl-1H-benzo[d][1,2,3]triazole-1-carboxamide], 0.1 % of control.

`O=C(N1CCC(O)CC1)n1nnc2ccccc21` [Compound 159, (1H-benzo[d][1,2,3]triazol-1-yl)(4-hydroxypiperidin-1-yl)methanone]: the “In Vitro FAAH activity, 100 nM” value was 4.8 % of control.

As for `O=C(Nc1ccc(Cl)cc1)n1nnc2ccccc21` [Compound 62, N-(4-chlorophenyl)-1H-benzo[d][1,2,3]triazole-1-carboxamide], the “In Vitro FAAH activity, 100 nM” value is listed as 93.7 % of control. Consider `CN(C(=O)n1cnc(-c2ccc(Cl)cc2)n1)c1ccc(F)cc1` [Compound 69, 3-(4-chlorophenyl)-N-(4-fluorophenyl)-N-methyl-1H-1,2,4-triazole-1-carboxamide], for which the “In Vitro FAAH activity, 100 nM” value is given as 80.8 % of control.

Still in this experiment, the particulars now being: 10 uM test compound, low value = strong inhibitor.
For the compound `O=C(N1CCOCC1)n1ccc(-c2cccnc2)n1` [Compound 21, morpholino(3-(pyridin-3-yl)-1H-pyrazol-1-yl)methanone hydrochloride], the “In Vitro FAAH activity, 10 uM” value is 79.1 % of control. The same measure, in the same setting: to `CN(C(=O)n1ccc(-c2ccc(-c3ccccc3)cc2)n1)c1ccccc1` [Compound 25, 3-(biphenyl-4-yl)-N-methyl-N-phenyl-1H-pyrazole-1-carboxamide] belongs 99 % of control. Same read-out and setting: the same measure for `O=C(Nc1ccccc1)n1ccc(-c2ccc(-c3ccccc3)cc2)n1` [Compound 20, 3-(biphenyl-4-yl)-N-phenyl-1H-pyrazole-1-carboxamide]: 97.3 % of control. Turning to `COc1ccc(N(C)C(=O)n2cnc(-c3ccccc3)c2)cc1` [Compound 17, N-(4-methoxyphenyl)-N-methyl-4-phenyl-1H-imidazole-1-carboxamide], the “In Vitro FAAH activity, 10 uM” value is recorded as 65 % of control. The same measure, in the same setting: to `COc1ccc(NC(=O)n2ccc(-c3ccccc3)n2)cc1` [Compound 6, N-(4-methoxyphenyl)-3-phenyl-1H-pyrazole-1-carboxamide] belongs 91.1 % of control.

The values are drawn from patent US9353082B2, “Pharmaceutical compounds” (BIAL—PORTELA & CA, S.A., priority 2008, dated 2016).
